Reference: article PMC9223397 (International Journal of Molecular Sciences, 2022)

Legend:
[1] = test system: Sig-1R/BiP interaction; assay: BiP/Sig-1R association assay in CHO cells; format: cell-based; conditions: for Effect on Sig-1R/BiP association: 10 µM
Method: The interaction between Sig-1R and the chaperone BiP was used to identify the functional nature (agonistic or antagonistic) of compounds [38]. The assay was conducted by Amylgen according to their standard assay protocol (https://www.amylgen.fr/ (accessed on 15 May 2022)). Each assay condition consisted of six determinations. In brief, CHO cells were treated with compounds at 37 °C for 30 min and lysed. CHO cell lysates were immunoprecipitated with Sig-1R antibody, and coimmunoprecipitated BiP was detected by ELISA assay. In each experiment, untreated control cell lysates were used to assess the maximal level of Sig1R-BiP interaction and represented 100% of Sig1R-BiP association. Cells treated with compounds at the corresponding concentrations were equally processed, and the level of Sig1R-BiP association in those conditions was referred to as the control condition. In this experimental setting, Sig1R agonists were able to reduce the Sig1R-BiP interaction, while antagonists were not.

[2] = test system: microglia and astrocytes in ventral horn after rhizotomy; assay: Glial reactivity after L4-L5 rhizotomy (Iba1, GFAP immunolabeling); format: in vivo, female mice (B6SJL); conditions: 0.25 mg/kg bid i.p., 42 dpi
Method: (§1) Surgeries were performed on three-month-old mice under anesthesia with ketamine-xylazine (100–10 mg/kg i.p.) as previously described. Briefly, the L4-L5 spinal roots were exposed by a small laminectomy on the right side. Afterwards, roots were cut at the exit from the intervertebral foramina, and the root stumps were separated. Mice were cared for until recovery in a warm environment. Analgesia was provided with buprenorphine (0.1 mg/kg) for the next 48 h post-surgery.
(§2) The compounds were dissolved in 0.5% hydroxypropyl-methylcellulose (HPMC; H7509, Sigma-Aldrich) in distilled water and were administered by intraperitoneal (i.p.) route twice daily (bid) in a volume of 10 mL/kg. Administrations were given from 30 min after rhizotomy surgery until 42 days post-injury (dpi), the end of the study; in the SOD1^G93A study, treatments were given from 8 to 16 weeks of age (see Figure 6).
(§3) For glial cells immunofluorescence, other lumbar spinal cord sections were blocked with 10% normal donkey serum and incubated overnight with primary antibodies rabbit anti-Iba1 (1:500; 019–19741, Wako) and rat anti-GFAP (1:500; 13-0300, Invitrogen) to label microglia and astroglia, respectively. After several washes, sections were incubated with secondary antibodies Alexa Fluor 488-donkey anti-rat (1:500; A-21208, Invitrogen) or Alexa Fluor 594 donkey anti-rabbit (1:500; A21207, Invitrogen). Finally, sides were mounted with Fluoromount-G. To quantify glial cell reactivity, images of the ventral horn were acquired with an epifluorescence microscope (Nikon Eclipse Ni, Japan) using the same conditions for each analyzed marker. After defining a threshold for background correction, the integrated density of GFAP or Iba1 labeling was measured using ImageJ software.

[3] = test system: spinal MNs after L4-L5 rhizotomy; assay: MN survival after L4-L5 rhizotomy (cresyl violet MN counts); format: in vivo, female mice (B6SJL); conditions: 0.25 mg/kg bid i.p., 42 dpi; positive control
Method: as §1, §2
(§4) At the end of follow-up (42 dpi for rhizotomy and 16 weeks of age for ALS mice; Figure 6), the animals were deeply anesthetized and transcardially perfused with 4% PFA in PBS. The lumbar spinal cord and the TA muscle were harvested and cryopreserved in 30% sucrose solution in PB. The spinal cords were serially cut in 20 µm thick transverse sections with a cryostat (Leica, Mannheim, Germany). For MN counting, L4-L5 spinal cord sections separated 100 µm were stained for 3 h with an acidified solution of 3.1 mM cresyl violet. MNs were identified by their localization in the lateral ventral horn of the spinal cord and were counted following strict size and morphological criteria: only MNs with a diameter larger than 20 µm, polygonal shape, and prominent nucleoli were counted.

[4] = test system: microglia and astrocytes in ventral horn of SOD1^G93A mice; assay: Glial reactivity in SOD1G93A mice (Iba1, GFAP); format: in vivo, SOD1^G93A male mice; conditions: 0.25 mg/kg i.p.; 16 weeks of age
Method: as §2, §3

[5] = Body weight in SOD1G93A mice; format: in vivo, SOD1^G93A male mice; conditions: 0.25 mg/kg i.p., 8 to 16 weeks of age
Method: as §2

[6] = Plasma levels, spinal nerve injury (rhizotomy) model; format: in vivo, female mouse; conditions: plasma, ip; spinal nerve injury female mouse, 0.25 mg/kg i.p.; 30 min post-administration; data obtained in a separate study
Method: as §2
Plasma levels were determined in the two in vivo models evaluated to be able to associate the pharmacological activity with the levels present in plasma. […] In the SOD1^G93A model, the plasma levels were evaluated at 16 weeks of age (after 8 weeks of administration) and 15 min after compound administration (5 mg/kg i.p.). Plasma samples were assayed by ultraperformance liquid chromatography−triple quadrupole mass spectrometry (UPLC-MS/MS) after plasma protein precipitation. Results are expressed as mean ± standard deviation (n = 8).

[7] = test system: SOD1^G93A mice; assay: Rotarod test in SOD1G93A mice; format: in vivo, SOD1^G93A male mice; conditions: 0.25 mg/kg i.p.; at 15 and 16 weeks
Method: as §2
A rotarod test was performed to evaluate motor coordination and strength. The time that each animal remained on the rotating rod at a speed of 14 rpm was measured for five trials per mouse, and the longest time until falling was recorded; 180 s was chosen as the cut-off time. The test was performed weekly from 8 to 16 weeks of age in SOD1^G93A and WT mice, and disease onset was determined as the first week when each mouse was unable to keep walking for 180 s on the rod.

[8] = test system: NMJs of hindlimb muscle in SOD1^G93A mice; assay: Neuromuscular junction innervation in SOD1G93A mice; format: in vivo, SOD1^G93A male mice; conditions: 0.25 mg/kg i.p.; 16 weeks of age
Method: as §2
For neuromuscular junction (NMJ) labeling, 50 µm thick longitudinal sections of TA muscle were serially cut. Sections were blocked with 5% normal donkey serum and incubated with primary antibodies rabbit anti-synaptophysin (1:500; Ab32127, Abcam, Cambridge, UK) and chicken anti-neurofilament 200 (NF200, 1:1000; AB5539, Millipore, Burlington, MS, USA) 48 h at 4 °C. After washes, sections were incubated overnight with secondary antibody Alexa Fluor 594-donkey anti-rabbit and anti-chicken (1:200; A11042-A21207, Invitrogen, USA) and Alexa 488 conjugated α-bungarotoxin (1:500; B13422, Life Technologies, Carlsbad, CA USA). Confocal images were captured (LSM 700 Axio Observer, Carl Zeiss, Jena, Germany, 40xOil/z0.5), and the maximum projection images generated from 1.3 µm z projections. The proportion of innervated NMJs was calculated by classifying each endplate as occupied (when presynaptic terminals overlie the endplate) or vacant (no presynaptic label in contact with the endplate). At least 60 endplates were analyzed per muscle.

[9] = biological target: T1, human Sigma-2 receptor (Sig-2R) (Homo sapiens, UniProt Q5BJF2); assay: Human Sig-2R radioligand assay; format: binding; conditions: [3H]-DTG, transfected HEK-293 Sig-1R knockout membranes
T1 construct: expressed in transfected cells; host or cells: HEK-293 Sig-1R knockout (membranes)
Method: The binding properties of the compounds to the human Sig-2R were similarly studied in transfected HEK-293 Sig-1R knockout membranes using [^3H]-1,3-di-o-tolylguanidine (DTG) (NET-986, PerkinElmer; Boston, USA) as the radioligand. The assay was carried out with 15 μg of membrane suspension, [^3H]-1,3-di-o-tolylguanidine (DTG) (10 nM, 100 μL), in either the absence or presence of either buffer or 10 μM haloperidol for total (TB) and nonspecific (NSB) binding, respectively, or the corresponding compound concentration. Binding buffer contained Tris-HCl (50 mM, pH 7.4). Plates were incubated at 25 °C for 120 min. After incubation, the reaction mix was transferred to MultiScreen HTS, FC plates (Merck Millipore) presoaked in 0.5% polyethyleneimine, and filtered. Following that, plates were washed with ice-cold Tris-HCl (10 mM, pH 8). Filters were dried and counted, and data were processed as above.

[10] = test system: spinal α-MNs in SOD1^G93A mice; assay: Spinal MN counts in SOD1G93A mice; format: in vivo, SOD1^G93A male mice; conditions: 0.25 mg/kg i.p.; 16 weeks of age
Method: as §2, §4

[11] = Plasma levels, SOD1G93A model; format: in vivo, Transgenic SOD1^G93A male mouse; conditions: SOD1G93A transgenic, plasma, ip; SOD1G93A male mouse, 0.25 mg/kg i.p.; 30 min post-administration; data obtained in a separate study
Method: as §2
Plasma levels were determined in the two in vivo models evaluated to be able to associate the pharmacological activity with the levels present in plasma. In the rhizotomy model, the plasma levels were evaluated at Day 42 after surgery and at 15 min after compound administration (0.5 and 5 mg/kg i.p.). […] Plasma samples were assayed by ultraperformance liquid chromatography−triple quadrupole mass spectrometry (UPLC-MS/MS) after plasma protein precipitation. Results are expressed as mean ± standard deviation (n = 8).

[12] = test system: NSC34 SOD1^G93A-induced cell death; design: method as in PMID 24334165; conditions: more significant effect at 10 μM; cited from earlier work

T1 sequence (Q5BJF2 whole entry): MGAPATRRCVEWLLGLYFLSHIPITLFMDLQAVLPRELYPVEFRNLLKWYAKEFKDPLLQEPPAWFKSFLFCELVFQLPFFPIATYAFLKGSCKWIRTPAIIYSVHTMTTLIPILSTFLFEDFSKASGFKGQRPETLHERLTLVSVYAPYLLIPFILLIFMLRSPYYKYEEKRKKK

## CCCN(CCC)CCc1ccc(OC)c(OCCc2ccccc2)c1 [NE100, reference compound]
[1]
  Effect on Sig-1R/BiP association: antagonist effect
[1]; compound 10 µM, PRE-084 10 µM
  Reversion of the effect of PRE-084 on Sig-1R/BiP association: able to revert the effect of PRE-084

## O=C(OCCN1CCOCC1)C1(c2ccccc2)CCCCC1 [PRE-084, 2-(4-Morpholinethyl)1-Phenylcyclohexanecarboxylate, reference compound]
[2]
  GFAP integrated density ± SEM (astroglial reactivity): 6 × 10^4 ± 0.9 × 10^4
  Iba1 integrated density ± SEM (microglial reactivity): 15 × 10^4 ± 1.4 × 10^4
[3]
  Number of spinal MNs ± SEM, ipsilateral ventral horn: 8.9 ± 0.4
[1]
  Effect on Sig-1R/BiP association: Agonist effect
[4]
  Astrocyte activation (GFAP): significant decrease in astrocyte activation
[5]
  Body weight vs vehicle group: did not cause differences in body weight
[6]
  concentration at 30 min: 3.6 ng/mL
[7]
  Rotarod performance vs vehicle: significantly improved the functional outcome
[8]
  Proportion of innervated endplates (NMJ) vs untreated: significantly increased the proportion of innervated endplates
[9]
  IC50: > 10 µM
[10]
  Number of surviving spinal α-MNs: 12.4 ± 0.9 MNs per section
[11]
  concentration at 30 min: 2.6 ng/mL

## COc1ccc(CCN2CCN(CCCc3ccccc3)CC2)cc1OC [SA4503]
[12]
  NSC34 SOD1G93A-induced cell death: reduced NSC34 SOD1^G93A-induced cell death in a concentration-dependent manner
